What was measured:
Format in all cases: in vivo
[1] = test system: Blumeria graminis on wheat; assay: Greenhouse trial, 4 day curative, Blumeria graminis on wheat; settings: compound alone
Method: The trials are carried out under greenhouse (Examples 1 to 18) or field conditions (Example 19) in residual or curative applications. The fungicides are applied in single treatments, or in a combination comprising a benzophenone of formula I and a compound selected from (A) through (E) as defined above. The compounds are applied in form of an aqueous spray mix obtained from a concentrated formulation or the technical material. […] Seed is planted in 6 cm diameter plastic pots and maintained in the greenhouse. […] When the primary leaf is fully expanded (in the case of cereals) or several leaves are present (in the case of dicots), formulated test compounds are sprayed with a three nozzle overhead fungicide sprayer to near run-off. Alternatively, a single nozzle overhead track sprayer is used for application of the compounds to cereals at a rate of 200 liters/ha (l/ha). Plants are then allowed to air-dry. […] Inoculation precedes treatment in the case of curative evaluations and follows treatment in case of residual evaluations. For inoculation of powdery mildew disease, plants are set up on greenhouse benches with bottom watering mats and inoculated by dusting them with conidia from infected plants. Between inoculation and treatment for curative evaluations and between treatment and inoculation for residual evaluations, plants are maintained in the greenhouse with bottom watering. For inoculation of non-powdery mildew diseases, an aqueous spore suspension of the pathogen is applied to the plant and the plants are kept 1-2 days in a moist infection chamber before being returned to the greenhouse where they are maintained by bottom watering. […] Disease on the foliage as percent leaf area with disease symptoms/signs is evaluated about 7 days after inoculation. In the case of wheat, the tips and bases of the leaves are excluded from the evaluation. [formula] […] Compounds are dissolved in acetone prior to addition of the water; the Tween 20 can be added through either the acetone or the water. Dilutions are made using the solvent/surfactant system. Formulated compounds are prepared using deionized water. Assessments of the diseases took place at the indicated day after the application of the compounds. Per cent infected leaf area infected was evaluated. […] Synergy of a fungicide mixture was determined by comparing the actual (observed) fungicidal activity of the mixture to the expected fungicidal activity of the mixture as calculated using the COLBY formula given hereinabove.

[2] = test system: Uncinula necator on vines; assay: Greenhouse trial, 1 day residual, Uncinula necator on vines; settings: Table XVIII, compound alone
Method: (§1) The trials are carried out under greenhouse (Examples 1 to 18) or field conditions (Example 19) in residual or curative applications. The fungicides are applied in single treatments, or in a combination comprising a benzophenone of formula I and a compound selected from (A) through (E) as defined above. The compounds are applied in form of an aqueous spray mix obtained from a concentrated formulation or the technical material.
(§2) 1. Seed is planted in 6 cm diameter plastic pots and maintained in the greenhouse.
(§3) 2. When the primary leaf is fully expanded (in the case of cereals) or several leaves are present (in the case of dicots), formulated test compounds are sprayed with a three nozzle overhead fungicide sprayer to near run-off. Alternatively, a single nozzle overhead track sprayer is used for application of the compounds to cereals at a rate of 200 liters/ha (l/ha). Plants are then allowed to air-dry.
(§4) 3. Inoculation precedes treatment in the case of curative evaluations and follows treatment in case of residual evaluations. For inoculation of powdery mildew disease, plants are set up on greenhouse benches with bottom watering mats and inoculated by dusting them with conidia from infected plants. Between inoculation and treatment for curative evaluations and between treatment and inoculation for residual evaluations, plants are maintained in the greenhouse with bottom watering. For inoculation of non-powdery mildew diseases, an aqueous spore suspension of the pathogen is applied to the plant and the plants are kept 1-2 days in a moist infection chamber before being returned to the greenhouse where they are maintained by bottom watering.
(§5) 4. Disease on the foliage as percent leaf area with disease symptoms/signs is evaluated about 7 days after inoculation. In the case of wheat, the tips and bases of the leaves are excluded from the evaluation. [formula]
(§6) 1. Technical compounds are formulated in a solvent/surfactant system consisting of 5% acetone and 0.05% Tween 20 in deionized water. Compounds are dissolved in acetone prior to addition of the water; the Tween 20 can be added through either the acetone or the water. Dilutions are made using the solvent/surfactant system. Formulated compounds are prepared using deionized water.
(§7) Assessments of the diseases took place at the indicated day after the application of the compounds. Per cent infected leaf area infected was evaluated. The efficacy of the compounds/compounds mixtures to control the diseases was calculated by using the formula given above under item 4: […]
(§8) Synergy of a fungicide mixture was determined by comparing the actual (observed) fungicidal activity of the mixture to the expected fungicidal activity of the mixture as calculated using the COLBY formula given hereinabove.
Fungicidal Efficacy of the Mixture of BP-4+AP-4 (1 Day Residual) Against Uncinula necator on Vines
The tank mixes were obtained from technical material of BP-4 and AP-4. The active ingredients, the type of formulations, the observed and expected efficacies with different rates are given in Table XVIII: […]

[3] = test system: Blumeria graminis f. sp. tritici on wheat; assay: Greenhouse trial, 2 day curative, Blumeria graminis f. sp. tritici on wheat; settings: Table XVII, compound alone
Method: as §1, §2, §3, §4, §5, §6, §7, §8
Fungicidal Efficacy of the Mixture of Different Benzophenones+Metconazole (2 Day Curative) Against Blumeria graminis f. sp. tritici on Wheat
The tank mixes were obtained from technical material of the benzophenones BP-2 and BP-4 and metconazole.

[4] = test system: Blumeria graminis on wheat; assay: Greenhouse trial, 3 day protective, Blumeria graminis on wheat; settings: compound alone
From the text: (§9) The fungicides are applied in single treatments, or in a combination comprising a benzophenone of formula I and a compound selected from (A) through (E) as defined above. The compounds are applied in form of an aqueous spray mix obtained from a concentrated formulation or the technical material.
as §2, §3, §4, §5, §6, §7, §8
Fungicidal Efficacy of the Mixture of BP-5+Triforine (3 Day Protective) Against Blumeria graminis on Wheat
Fungicidal Efficacy of the Mixture of BP-1+Triadimefon (3 Day Protective) Against Blumeria graminis on Wheat

[5] = test system: Erysiphe cichoracearum on cucumbers; assay: Greenhouse trial, 4 day residual, Erysiphe cichoracearum on cucumbers
From the text: as §9, §2, §3, §4, §5, §6, §7, §8

[6] = test system: Pyrenophora teres on barley; assay: Greenhouse trial, 4 day residual, Pyrenophora teres on barley; settings: Table XVI (Example 16), 4 day residual
From the text: as §9, §2, §3, §4, §5, §6, §7, §8
Fungicidal Efficacy of the Mixture of BP-4+Other Fungicides (4 Day Residual) Against Pyrenophora teres on Barley

[7] = test system: Puccinia recondita on wheat; assay: Greenhouse trial, 4 day residual, Puccinia recondita on wheat
From the text: as §9, §2, §3, §4, §5, §6, §7, §8
Fungicidal Efficacy of the Mixture of BP-4+Other Fungicides (4 Day Residual) Against Puccinia recondita on Wheat
Fungicidal Efficacy of the Mixture of BP-4+Myclobutanil (4 Day Residual) Against Puccinia recondita on Wheat

[8] = test system: Leptosphaeria nodorum on wheat; assay: Greenhouse trial, 4 day residual, Leptosphaeria nodorum on wheat; settings: Table VIII, compound alone
From the text: as §9, §2, §3, §4, §5, §6, §7, §8
Fungicidal Efficacy of the Mixture of BP-4+Other Fungicides (4 Day Residual) Against Leptosphaeria nodorum on Wheat

[9] = Table XV (Example 15), 4 day residual, dose rate 50 ppm
[10] = Table XIV (Example 14), 4 day residual, dose rate 10 ppm

Q: Which results are given for `Fc1cccc(Cl)c1-c1c(Cl)nc2ncnn2c1NC1CC1` [AP-1, 5-chloro-6-(2-chloro-6-fluorophenyl)-7-(cyclopropylamino)-[1,2,4]triazolo[1,5-a]pyrimidine]?
A: Observed Efficacy ([1]; Table I, dose rate 25 ppm): 0%; Observed Efficacy ([1]; Table I, dose rate 125 ppm): 0%

Q: `CC1CCN(c2c(-c3c(F)cccc3Cl)c(Cl)nc3ncnn23)CC1` [AP-2, 5-chloro-6-(2-chloro-6-fluorophenyl)-7-(4-methylpiperid-1-yl)-[1,2,4]triazolo[1,5-a]pyrimidine] was tested. Which “Observed Efficacy” value ([1]; Table II, dose rate 25 ppm) did it give?
A: Its value is 0%.

Q: And the “Observed Efficacy” value ([1]; Table II, dose rate 125 ppm)?
A: Its value is 8%.

Q: `CC(Nc1c(-c2c(F)cc(F)cc2F)c(Cl)nc2ncnn12)C(F)(F)F` (stereo not drawn) [AP-4, 5-chloro-6-(2,4,6-trifluorophenyl)-7-[2-(1,1,1-trifluoro)propylamino]-[1,2,4]triazolo[1,5-a]pyrimidine] was tested. Which “Observed Efficacy” value ([2]; dose rate 0.03 ppm) did it give?
A: The value was 13%.

Q: And the “Observed Efficacy” value ([2]; dose rate 0.06 ppm)?
A: The value was 7%.

Q: And the “Observed Efficacy” value ([2]; dose rate 0.12 ppm)?
A: Its value is 32%.

Q: What about the “Observed Efficacy” value ([2]; dose rate 0.25 ppm) of the same compound?
A: The value was 50%.

Q: What about the “Observed Efficacy” value ([2]; dose rate 0.5 ppm) of the same compound?
A: Its value is 76%.

Q: And the “Observed Efficacy” value ([2]; dose rate 1 ppm)?
A: The value was 76%.

Q: How did the “Observed Efficacy” value ([3]; dose rate 0.67 ppm) turn out when `COc1cc(C)c(C(=O)c2c(Cl)cccc2Cl)c(OCc2ccccc2F)c1OC` [BP-2, 2,6-dichloro-4′,5′-dimethoxy-6′-(2-fluorobenzyloxy)-2′-methylbenzophenone] was run?
A: The value was 4%.

Q: And the “Observed Efficacy” value ([3]; dose rate 2 ppm)?
A: The value was 13%.

Q: What about the “Observed Efficacy” value ([3]; dose rate 6 ppm) of the same compound?
A: Its value is 18%.

Q: What about the “Observed Efficacy” value ([3]; dose rate 18 ppm) of the same compound?
A: Its value is 25%.

Q: And the “Observed Efficacy” value ([3]; dose rate 54 ppm)?
A: The value was 67%.

Q: Which results are given for `COc1cc(C)c(C(=O)c2c(Cl)cccc2Cl)c(OC)c1OC` [BP-5, 2,6-dichloro-2′-methyl-4′,5′,6′-trimethoxybenzophenone]?
A: Observed Efficacy ([4]; Table IV, dose rate 5 ppm): 12%; Observed Efficacy ([4]; Table IV, dose rate 25 ppm): 31%

Q: Which “Observed Efficacy” value ([1]; Table III, dose rate 25 ppm) does the source give for `CC(C)(C)C(=O)C(Oc1ccc(Cl)cc1)n1cncn1` (stereo not drawn) [triadimefon] here?
A: The value was 12%.

Q: And the “Observed Efficacy” value ([1]; Table III, dose rate 125 ppm)?
A: The value was 30%.

Q: And the “Observed Efficacy” value ([4]; Table V, dose rate 25 ppm)?
A: Its value is 24%.

Q: What about the pest or weed control at 0.4 ppm ([5]; Golovinomyces cichoracearum, 96 h, Table XIV (Example 14), 4 day residual, dose rate 0.4 ppm, read-out: Observed Efficacy) of the same compound?
A: The pest or weed control at 0.4 ppm was 0%.

Q: And the pest or weed control at 2 ppm ([5]; Golovinomyces cichoracearum, 96 h, Table XIV (Example 14), 4 day residual, dose rate 2 ppm, read-out: Observed Efficacy)?
A: The pest or weed control at 2 ppm was 6%.

Q: What about the pest or weed control at 10 ppm ([5]; Golovinomyces cichoracearum, 96 h, Table XIV (Example 14), 4 day residual, dose rate 10 ppm, read-out: Observed Efficacy) of the same compound?
A: The pest or weed control at 10 ppm was 23%.

Q: And the pest or weed control at 50 ppm ([5]; Golovinomyces cichoracearum, 96 h, Table XIV (Example 14), 4 day residual, dose rate 50 ppm, read-out: Observed Efficacy)?
A: The pest or weed control at 50 ppm was 47%.

Q: Which results are given for Dinocap?
A: Observed Efficacy ([6]; dose rate 50 ppm): 22; Observed Efficacy [7, 9]: 54; Observed Efficacy [5, 10]: 0

Q: Which “Observed Efficacy” value ([6]; dose rate 50 ppm) does the source give for Flusilazole [listing 1 of 2 here] here?
A: The value was 48.

Q: And the “Observed Efficacy” value [7, 9]?
A: The value was 100.

Q: And the “Observed Efficacy” value ([5]; Table XIV (Example 14), 4 day residual, dose rate 50 ppm)?
A: The value was 38.

Q: For Flusilazole [listing 2 of 2 here], which “Observed Efficacy” value ([6]; dose rate 2 ppm) is on record?
A: Its value is 8.

Q: And the “Observed Efficacy” value ([6]; dose rate 10 ppm)?
A: Its value is 26.

Q: What about the “Observed Efficacy” value ([7]; Table XV (Example 15), 4 day residual, dose rate 0.4 ppm) of the same compound?
A: Its value is 5.

Q: What about the “Observed Efficacy” value ([7]; Table XV (Example 15), 4 day residual, dose rate 2 ppm) of the same compound?
A: The value was 28.

Q: What about the “Observed Efficacy” value ([5]; Table XIV (Example 14), 4 day residual, dose rate 0.4 ppm) of the same compound?
A: The value was 0.

Q: And the “Observed Efficacy” value ([5]; Table XIV (Example 14), 4 day residual, dose rate 2 ppm)?
A: Its value is 0.

Q: What about the “Observed Efficacy” value [5, 10] of the same compound?
A: Its value is 19.

Q: triforine was tested. Which “Observed Efficacy” value ([7]; Table VII, compound alone, dose rate 4 ppm) did it give?
A: Its value is 0%.

Q: And the “Observed Efficacy” value ([7]; Table VII, compound alone, dose rate 16 ppm)?
A: Its value is 7%.

Q: And the “Observed Efficacy” value ([7]; Table VII, compound alone, dose rate 64 ppm)?
A: The value was 90%.

Q: And the “Observed Efficacy” value ([7]; Table VII, compound alone, dose rate 256 ppm)?
A: Its value is 100%.

Q: What about the “Observed Efficacy” value ([4]; Table IV, dose rate 125 ppm) of the same compound?
A: The value was 12%.

Q: What about the “Observed Efficacy” value ([8]; dose rate 1 ppm) of the same compound?
A: Its value is 0%.

Q: And the “Observed Efficacy” value ([8]; dose rate 4 ppm)?
A: Its value is 4%.

Q: And the “Observed Efficacy” value ([8]; dose rate 16 ppm)?
A: The value was 31%.

Q: And the “Observed Efficacy” value ([8]; dose rate 64 ppm)?
A: Its value is 51%.

Q: What about the “Observed Efficacy” value ([8]; dose rate 256 ppm) of the same compound?
A: The value was 85%.

Q: What about the “Observed Efficacy” value ([5]; Table VI, compound alone, dose rate 4 ppm) of the same compound?
A: Its value is 1%.

Q: What about the “Observed Efficacy” value ([5]; Table VI, compound alone, dose rate 16 ppm) of the same compound?
A: The value was 44%.

Q: And the “Observed Efficacy” value ([5]; Table VI, compound alone, dose rate 64 ppm)?
A: The value was 79%.

Q: And the “Observed Efficacy” value ([5]; Table VI, compound alone, dose rate 256 ppm)?
A: The value was 96%.

— patent US6346535B1, “Fungicidal mixtures” (American Cyanamid Company, priority 1999, dated 2002)
